The test system of data set [1] is tracheae (zig-zag strips from passively sensitized guinea pigs). Briefly: passive Schultz-Dale reaction (bronchodilatory effects), relaxation of antigen-contracted tracheal strips. Further details: species or system guinea pig (male Hartley). Conditions: Cavia porcellus; EWA (1 μg/ml)-induced contraction, guinea pig trachea, 37° C., cumulative addition; read-out: Bronchodilatory effect IC50 (concentration to produce 50% relaxation). The procedure:
Effects on passive Schultz-Dale reaction (bronchodilatory effects)
After 24 hours, the guinea pigs were stunned and exsanguinated, and then tracheae were removed. The zig-zag strips of the tracheae were prepared by the method of Emmerson, et al. [J. Pharm. […] After the contraction reached stable plateau, the compounds were cumulatively added in order to get concentration-relaxation curves.

The subject of another data set is dd-mice. Briefly: Acute toxicity (minimum lethal dose). The format is in vivo. The conditions noted are these: male dd-mice, mortality for seven days. The procedure: The compounds were orally administrated (po) or intraperitoneally administrated (ip) to three male dd-mice weighing 20±1 g. Minimum lethal dose (MLD) was determined by observing the mortality for seven days after the administration.

Another data set has as its system PCA reaction. As to the kind of experiment: 48 hour-homologous passive cutaneous anaphylaxis (PCA) test in rats (antiallergic effects). The format is in vivo, rat (male Wistar). More on the design: key to Anti-PCA MED (minimum effective dosage): NE: no effect. The conditions noted are these: rat, oral, 1 hour before PCA challenge, inhibition 50% or higher in at least one of three animals; for minimal effective dose: read-out: Anti-PCA MED (minimum effective dosage). The procedure: Antiallergic effects: Antiallergic effects of compounds were studied by passive cutaneous anaphylaxis (PCA) test in rats. Male Wistar rats weighing 180 to 220 g were used for collection of antiserum and Male Wistar rats weighing 120 to 140 g for PCA test. (A) Preparation of anti-EWA serum in rat Anti-EWA rat serum was prepared by the method of Stotland, et al [Can. J. Physiol. Pharmacol., 52, 1114, (1974)] as follows. That is, 1 mg of EWA, 20 mg of aluminium hydroxide gel and 0.5 ml of mixed vaccine of pertussis, diphtheria and tetanus were mixed, and the mixture was subcutaneously injected in four foodpads of rats. After 14 days, the blood of sensitized rats was collected from the carotid artery. The serum was separated by centrifugation from collected blood, and stored at -80° C. The 48 hour homologous PCA titer of the serum was 1 :64. (B) Effects on 48 hour-homologous PCA tests in rats Three rats in each group were passively sensitized with 8 hold diluted anti-EWA serum (0.05 ml) intradermally injected in two sites of shaved dosal area of rats. After 47 hours, the test compound or its solvent (saline or CMC solution) was orally administrated, and 1 hour thereafter, PCA reaction was induced by intravenous administration of 1% Evan's blue in saline (0.5 ml/100 g) containing 2 mg of EWA. After 30 minutes, animals were sacrificed by bleeding and dorsal skin was stripped to determine the leakage of dye at blue spots, by the method of Katayama et al. [Microbiol. Immunol., 22, 89 (1978)]. The blue-dyed spots were dissected and placed in a test tube containing 1 ml of 1N sodium hydroxide and incubated at 37° C. for 48 hours. Then, 9 ml of a mixture of 0.6N phosphate:acetone (5:13) was added thereto. After shaking, the mixture was centrifuged at 2500 rpm for 10 minutes. A supernatant was separated, and extravasated dye in the supernatant was determined photometrically at 620 nm. Inhibition percent was calculated as follows: [formula]

In the case of `CC(CC1OCCc2ccccc21)NCC(O)c1ccc(O)cc1` (centres unmarked) [Compound 1, 1-(4-Hydroxyphenyl)-2-[2-(isochroman-1-yl)-1-methylethylamino]ethanol], the IC50 in data set [1] was determined as 12.8 nM. In addition, in the data set on dd-mice, the “Acute Toxicity MLD ip (minimum lethal dose)” value (“Acute Toxicity MLD ip” for short) is given as over 100 mg/kg and the “Acute Toxicity MLD po (minimum lethal dose)” value (“Acute Toxicity MLD po” for short) is over 300 mg/kg. For the same compound, the minimal effective dose with PCA reaction was 10 mg/kg.
As to `CC(CC1OCCc2ccccc21)NC[C@H](O)c1ccc(O)cc1` (some centres unmarked) [Compound 2, (IR)-1-(4-hydroxyphenyl)-2-[2-(isochroman-1-yl)-1-methylethylamino]ethanol], the IC50 in data set [1] worked out at 0.612 nM. Further, in the data set with dd-mice, the “Acute Toxicity MLD ip” value is listed as over 100 mg/kg and the “Acute Toxicity MLD po” value is over 300 mg/kg. In addition, the minimal effective dose in the data set on PCA reaction came out at 10 mg/kg.
Regarding `CC(CC1OCCc2ccccc21)NC[C@@H](O)c1ccc(O)cc1` (stereo partly drawn) [Compound 3, (1S)-1-(4-hydroxyphenyl)-2-[2-(isochroman-1-yl)-1-methylethylamine]ethanol], the IC50 in data set [1] was 2.76 nM. The “Anti-PCA MED (minimum effective dosage)” value in the data set on PCA reaction is recorded as “NE”.
Take `CC(CC1OCCc2ccccc21)NCC(O)c1ccccc1` (centres unmarked) [Compound 4, 2-[2-(Isochroman-1-yl)-1-methylethylamino]-1-phenylethanol]: the IC50 in data set [1] turned out to be 260 nM. Further, in the data set on dd-mice, the “Acute Toxicity MLD ip” value is given as 100 mg/kg and the “Acute Toxicity MLD po” value is on record as 200 mg/kg. Moreover, the minimal effective dose with PCA reaction came out at 10 mg/kg.
With `CC(CC1OCCc2ccccc21)NC[C@H](O)c1ccccc1` (stereo partly drawn) [Compound 5, (1R)-2-[2-(Isochroman-1-yl)-1-methylethylamino]-1-phenylethanol], the IC50 in data set [1] was found to be 19 nM. For the same compound, in the data set on dd-mice, the “Acute Toxicity MLD ip” value stood at 25 mg/kg and the “Acute Toxicity MLD po” value is 200 mg/kg. Besides, in the data set with PCA reaction, the minimal effective dose amounted to 1 mg/kg.
Take `CC(CC1OCCc2ccccc21)NC[C@@H](O)c1ccccc1` (stereo partly drawn) [Compound 6, (1S)-2-[2-(Isochroman-1-yl)-1-methylethylamino]-1-phenylethanol]: the IC50 in data set [1] worked out at 12000 nM. For the same compound, in the data set on dd-mice, the “Acute Toxicity MLD ip” value was over 100 mg/kg and the “Acute Toxicity MLD po” value was 200 mg/kg. The “Anti-PCA MED (minimum effective dosage)” value with PCA reaction is “NE”.
On to `CC(CC1OCCc2ccccc21)NCC(O)c1cccc(O)c1` (centres unmarked) [Compound 7, 1-(3-Hydroxyphenyl)-2-[2-(isochroman-1-yl)-1-methylethylamino]ethanol], for which, in data set [1], the IC50 came to 11 nM. Further, in the data set with dd-mice, the “Acute Toxicity MLD ip” value is on record as 100 mg/kg and the “Acute Toxicity MLD po” value is 300 mg/kg. In addition, in the data set with PCA reaction, the minimal effective dose was 10 mg/kg.
Regarding `CC(CC1OCCc2ccccc21)NCC(O)c1ccccc1O` (centres unmarked) [Compound 8, 1-(2-Hydroxyphenyl)-2-[2-(isochroman-1-yl)-1-methylethylamino]ethanol], the IC50 in data set [1] stood at 53 nM. Besides, in the data set on dd-mice, the “Acute Toxicity MLD ip” value is 100 mg/kg and the “Acute Toxicity MLD po” value amounted to 200 mg/kg. Besides, in the data set on PCA reaction, the “Anti-PCA MED (minimum effective dosage)” value was “NE”.
Regarding `CC(CC1OCCc2ccccc21)NCC(O)c1cc(O)cc(O)c1` (centres unmarked) [Compound 9, 1-(3,5-Dihydroxyphenyl)-2-[2-(isochroman-1-yl)-1-methylethylamino]ethanol], the IC50 in data set [1] amounted to 1.18 nM. Also, in the data set on dd-mice, the “Acute Toxicity MLD po” value stood at 200 mg/kg.
In the case of `COc1ccc(C(O)CNC(C)CC2OCCc3ccccc32)cc1` (centres unmarked) [Compound 10, 2-[2-(Isochroman-1-yl)-1-methylethylamino]-1-(4-methoxyphenyl)ethanol], the IC50 in data set [1] amounted to 81 nM. Moreover, in the data set with dd-mice, the “Acute Toxicity MLD ip” value is on record as 100 mg/kg and the “Acute Toxicity MLD po” value is 200 mg/kg. For the same compound, the minimal effective dose with PCA reaction is 10 mg/kg.
Turning to `CC(CC1OCCc2ccccc21)NCC(O)c1ccc(F)cc1` (centres unmarked) [Compound 16, 1-(4-Fluorophenyl)-2-[2-(isochroman-1-yl)-1-methylethylamino]ethanol], the IC50 in data set [1] stood at 61.4 nM. Further, in the data set on dd-mice, the “Acute Toxicity MLD ip” value is on record as over 100 mg/kg and the “Acute Toxicity MLD po” value worked out at 300 mg/kg. For the same compound, in the data set with PCA reaction, the “Anti-PCA MED (minimum effective dosage)” value was “NE”.
For `CC(CC1OCCc2ccccc21)NCC(O)c1ccc(Cl)cc1` (centres unmarked) [Compound 17, 1-(4-Chlorophenyl)-2-[2-(isochroman-1-yl)-1-methylethylamino]ethanol], in data set [1], the IC50 worked out at 3400 nM. Further, in the data set on dd-mice, the “Acute Toxicity MLD ip” value worked out at 100 mg/kg and the “Acute Toxicity MLD po” value was found to be 100 mg/kg. The minimal effective dose in the data set on PCA reaction was found to be 1 mg/kg.
Take `CC(CC1OCCc2ccccc21)NCC(O)c1cccs1` (centres unmarked) [Compound 20, 2-[2-(Isochroman-1-yl)-1-methylethylamino]-1-thienylethanol]: in data set [1], the IC50 amounted to 36.1 nM. In addition, in the data set on dd-mice, the “Acute Toxicity MLD ip” value is over 100 mg/kg and the “Acute Toxicity MLD po” value is over 300 mg/kg. In the data set on PCA reaction, the “Anti-PCA MED (minimum effective dosage)” value is “NE”.
For the compound `Oc1ccc(C(O)CNCCC2OCCc3ccccc32)cc1` (centres unmarked) [Compound 23, 1-(4-Hydroxyphenyl)-2-[2-(isochroman-1-yl)ethylamino]ethanol], the IC50 in data set [1] came out at 8.76 nM.
With `CC(CC1OCCc2ccccc21)NC(C)C(O)c1ccc(O)cc1` (centres unmarked) [Compound 24, 1-(4-Hydroxyphenyl)-2-[2-(isochroman-1-yl)-1-methylethylamino]-1-propanol], the IC50 in data set [1] is 1600 nM. In the data set with dd-mice, the “Acute Toxicity MLD ip” value is over 100 mg/kg and the “Acute Toxicity MLD po” value was over 300 mg/kg. Besides, the “Anti-PCA MED (minimum effective dosage)” value in the data set with PCA reaction is listed as “NE”.
For the compound `COC(CNC(C)CC1OCCc2ccccc21)c1ccc(O)cc1` (centres unmarked) [Compound 25, 2-(4-Hydroxyphenyl)-N-[2-(isochroman-1-yl)-1-methylethylamino]-2-methoxyethylamine], the IC50 in data set [1] stood at 2.4 nM. In the data set with PCA reaction, the “Anti-PCA MED (minimum effective dosage)” value is on record as “NE”.
With `CC(CC1OCCc2ccccc21)NCC(O)Cc1ccccc1` (centres unmarked) [Compound 26, 1-[2-(Isochroman-1-yl)-1-methylethylamino]-3-phenyl-2-propanol], in data set [1], the IC50 worked out at 9040 nM. Further, the “Anti-PCA MED (minimum effective dosage)” value in the data set with PCA reaction is “NE”.
Regarding `CC(CC1CCCc2ccccc21)NCC(O)c1ccc(O)cc1` (centres unmarked) [Compound 30, 1-(4-Hydroxyphenyl)-2-[2-(1,2,3,4-tetrahydro-1-naphthyl)-1-methylethylamino]ethanol], in data set [1], the IC50 turned out to be 1.95 nM. For the same compound, in the data set on dd-mice, the “Acute Toxicity MLD ip” value is over 100 mg/kg and the “Acute Toxicity MLD po” value is over 300 mg/kg. Moreover, the minimal effective dose in the data set on PCA reaction was found to be 10 mg/kg.
Regarding `CC(CC1c2ccccc2CCN1C)NCC(O)c1ccc(O)cc1` (centres unmarked) [Compound 31, 1-(4-Hydroxyphenyl)-2-[1-methyl-2-(2-methyl-1,2,3,4-tetrahydroisoquinolin-1-yl)ethylamino]ethanol], in data set [1], the IC50 amounted to 85 nM. For the same compound, in the data set with dd-mice, the “Acute Toxicity MLD ip” value was over 100 mg/kg and the “Acute Toxicity MLD po” value is given as over 300 mg/kg. The “Anti-PCA MED (minimum effective dosage)” value in the data set with PCA reaction is “NE”.

Values taken from US5128369A, “Arylalkylamine derivatives” (Kyowa Hakko Kogyo Co., Ltd., priority 1989, dated 1992).
